# Laboratory results reported in paper PMC12172326 (Journal of Biomedical Science, 2025).
# Entries after “also recorded” stand apart in the source; their conditions may differ. Marks after values point to notes of the source that are not given here.
# How the values were obtained:
# [1] = system: LPS-induced cytokines (TNF-α, IL-6, IL-1β, KC/GRO, IL-10); assay: systemic LPS challenge in mice, plasma and cerebral cortex cytokines; format: in vivo, mouse
# Method: 8-week-old male C57/BL6 J mice (25–30 g; n = 28) were randomly assigned to five experimental groups. […] Rolipram, a discontinued PDE4 inhibitor, with known anti-inflammatory activity was used as a positive control. One hour later, animals were administered either LPS (3 mg/kg, serotype 0111:B4, Sigma Aldrich, in normal saline, 0.1 mL/10 g) or an alike volume of saline (without LPS) via the I.P. route. The LPS dose was selected from prior pilot studies to provide a substantial but sub-maximal rise in plasma pro-inflammatory cytokine levels, in line with our prior research. […] Four hours after LPS administration, animals were euthanized, and blood and brain tissue were collected and placed on wet ice. Plasma was quickly separated from blood by centrifugation (10,000g, 5 min, 4 °C), and together with a brain sample (cerebral cortex), were stored at − 80 °C. At a later time, cerebral cortex samples were sonicated in a TRIS-based lysis buffer (Mesoscale Discovery) with 3 × protease/phosphatase inhibitors (Halt™ Protease and Phosphatase Inhibitor Cocktail, Thermo Fisher Scientific, Waltham, MA, USA). Samples were then centrifuged (10,000g, 10 min, 4 °C) and protein concentrations were quantified by bicinchoninic acid assay (BCA, Thermo Fisher Scientific). Mouse plasma and cerebral cortex samples were analyzed by multi-pro-inflammatory cytokine ELISA (V-PLEX Pro-inflammatory Panel 1 Mouse Kit, Mesoscale Discovery) following the manufacturer’s protocol.
# [2] = aqueous solubility; format: physicochemical
# Method: This coarse drug suspension was transferred into Eppendorf microtubes containing approximately 0.4 g of 0.1–0.2 mm yttrium-stabilized zirconia-silica beads (Silibeads® Typ ZY Sigmund Lindner, Germany). The drug was vortexed twice, at 3000 rpm for 45 min, using a beads-milling cell disruptor (Disruptor Genie®, Scientific Industries, USA). The resulting nanosuspension was collected from each microtube and sieved through a 40 µm filter (Cell Strainer, Falcon # 35234) to remove the zirconia-silica beads. […] The stock drug concentration was 10.83 mg/ml (37.4 mM). The drug vehicle was essentially the same ratio of Tween 80 and water, processed in the identical manner as the drug preparation.
# [3] = system: chicken embryos; assay: chicken embryo teratogenicity at E2.5; format: in vivo
# Method: All studies with chicken embryos were performed in line with UK Home Office regulations and followed guidelines, standards and practices governed by the University of Aberdeen Ethics Committee (Scotland, UK). Fertilized chicken eggs were acquired from Henry Stewart & Co Ltd, Norfolk UK. […] Embryos were incubated at 37 °C to reach E2.5 (early developmental stages). Eggs were then opened and the embryonic membranes protecting the embryos were removed with forceps. Chicken embryos usually lie on one side, so the left side is directly against the yolk and the right side can be observed. […] Consequent to limited drug diffusion when applied to the right side of an embryo, the right side is deemed the ‘treatment’ side and the left (facing internally towards the yolk sac) is considered normal after treatment and thus can act as an internal control.
# [4] = LPS-induced inflammation in IMG microglial cells (viability, nitrite, TNF-α); format: cell-based, mouse; conditions: mouse, IMG immortalized microglial cells, IMG, 0.6 to 60 μM, LPS 10 ng/mL, MTS, read-out: cellular viability
# Method: (§1) IMG cell culture: Mouse immortalized microglial ‘IMG’ cells (Sigma-Aldrich; St. Louis, MO, USA; Cat # SCC-134, RRID:CVCL HC49) were cultured in High Glucose DMEM (Sigma Cat. No. D6546) with 10% heat-inactivated fetal bovine serum (Gibco™ Cat # 10082147), 1 × L-Glutamine (Sigma Cat # TMS-002-C) and 100 U/mL penicillin/streptomycin (Gibco™ Cat # 15140148). IMG cell subculturing was performed according to the product datasheet. In brief, cells were detached from culture plates with Accutase® (Sigma, Cat # A6964), collected, and centrifuged, with the cell pellet subsequently resuspended in media. The cells were then plated for experiments at specified densities and used for a maximum of 10 passages.
# (§2) For cytokine/nitrite assessment studies, cells were grown in 24-well (40 K cells/well) tissue culture-treated plates in 500 μl of media. […] This LPS concentration induced a submaximal inflammatory response in IMG pilot studies. Following a 24 h incubation, conditioned media was collected and replaced with 500 μl fresh media to allow assessment of cell viability, TNF-α (ELISA MAX™ Deluxe Set Mouse TNF-α, BioLegend, CA, USA) and nitrite levels (Griess Reagent System, Promega, Madison, WI, USA), according to manufacturer’s instructions.
# [5] = system: IMG cells; assay: as above; format: cell-based, mouse; conditions: 24 h
# Method: as §1, §2
# [6] = 26.5 and 53 mg/kg I.P. 1 h before LPS 3 mg/kg, 4 h, p < 0.05 to < 0.0001
# [7] = cerebral cortex, 26.5 and 53 mg/kg I.P., LPS 3 mg/kg, 4 h
compound,measurement,setting,value
"Nc1cccc2c1C(=S)N(C1CCC(=O)NC1=O)C2=O (stereo not shown) [3-MP, 3-monothiopomalidomide]",LPS-mediated elevation in plasma IL-6,[1]; [6],lowered
same,LPS-mediated elevation in plasma TNF-α,[1]; [6],lowered
same,LPS-induced brain IL-1β,[1]; [7],dose-dependent reduction
same,LPS-induced brain IL-6,[1]; [7],dose-dependent reduction
same,LPS-induced brain KC/GRO,[1]; [7],dose-dependent reduction
same,LPS-induced brain TNF-α,[1]; [7],dose-dependent reduction
same,levels of the anti-inflammatory cytokine IL-10,"[1]; plasma and brain, 26.5 and 53 mg/kg I.P., compared to LPS treatment",unaffected
same,aqueous solubility,[2],poorly aqueous soluble
same,developmental effect on chicken embryos,"[3]; E2.5, 2.65 to 132 ug, 24 h exposure, vs DMSO controls",not teratogenic; also recorded: no adverse developmental differences or damage
same,Normal embryos,"[3]; E2.5, dose 2.65 ug, N 2, 24 h",2
same,Normal embryos,"[3]; E2.5, dose 5.3 ug, N 3, 24 h",3
same,Normal embryos,"[3]; E2.5, dose 20 ug, N 5, 24 h",5
same,"Not counted embryos (died soon after application, methodology-related)","[3]; E2.5, dose 26.4 ug, N 7",2^a
same,Normal embryos,"[3]; E2.5, dose 26.4 ug, N 7, 24 h",5
same,"Not counted embryos (died soon after application, methodology-related)","[3]; E2.5, dose 52.8 ug, N 5",2^a
same,Normal embryos,"[3]; E2.5, dose 52.8 ug, N 5, 24 h",3
same,Normal embryos,"[3]; E2.5, dose 66 ug, N 3, 24 h",3
same,Normal embryos,"[3]; E2.5, dose 132 ug, N 3, 24 h",3
same,viability at 24 h,[4],> 90%
same,IMG cell viability,"[5]; 100 μM, without LPS, vs vehicle control, MTS",reduced
same,concentration significantly reducing LPS-induced TNF-α,"[5]; IMG, LPS 10 ng/mL, p < 0.001",≥ 10 µM
same,concentration significantly reducing LPS-induced nitrite,"[5]; IMG, LPS 10 ng/mL, p < 0.05",≥ 30 µM
